Laboratory results as given in patent US7595395B2, “Gabaergic agents to treat memory deficits” (priority 2005, dated 2009).
Read-outs that look alike come from different tables or passages of the source.

What was measured:
[1] = target: T1, α3β3γ2 benzodiazepine receptor GABA(A) isoform (UniProt P18507+P34903); experiment: Radioligand competition binding, α3β3γ2 BzR/GABA(A) isoform; parameters: species or system human and rat
T1 sequence (P18507 1-475): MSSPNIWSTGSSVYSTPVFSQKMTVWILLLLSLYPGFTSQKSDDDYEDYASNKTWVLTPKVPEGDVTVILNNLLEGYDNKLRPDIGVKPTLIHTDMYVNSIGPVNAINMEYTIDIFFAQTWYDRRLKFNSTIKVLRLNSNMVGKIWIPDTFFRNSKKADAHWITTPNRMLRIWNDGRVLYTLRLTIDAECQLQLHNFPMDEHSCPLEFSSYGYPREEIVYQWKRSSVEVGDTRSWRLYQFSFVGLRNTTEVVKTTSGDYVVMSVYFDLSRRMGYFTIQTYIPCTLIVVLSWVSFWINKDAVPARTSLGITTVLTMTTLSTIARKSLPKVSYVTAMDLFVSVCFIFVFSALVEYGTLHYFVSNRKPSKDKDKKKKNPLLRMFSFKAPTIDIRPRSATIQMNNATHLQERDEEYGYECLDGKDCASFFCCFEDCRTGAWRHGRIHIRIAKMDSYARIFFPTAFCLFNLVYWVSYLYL
T1 sequence (P34903 1-492): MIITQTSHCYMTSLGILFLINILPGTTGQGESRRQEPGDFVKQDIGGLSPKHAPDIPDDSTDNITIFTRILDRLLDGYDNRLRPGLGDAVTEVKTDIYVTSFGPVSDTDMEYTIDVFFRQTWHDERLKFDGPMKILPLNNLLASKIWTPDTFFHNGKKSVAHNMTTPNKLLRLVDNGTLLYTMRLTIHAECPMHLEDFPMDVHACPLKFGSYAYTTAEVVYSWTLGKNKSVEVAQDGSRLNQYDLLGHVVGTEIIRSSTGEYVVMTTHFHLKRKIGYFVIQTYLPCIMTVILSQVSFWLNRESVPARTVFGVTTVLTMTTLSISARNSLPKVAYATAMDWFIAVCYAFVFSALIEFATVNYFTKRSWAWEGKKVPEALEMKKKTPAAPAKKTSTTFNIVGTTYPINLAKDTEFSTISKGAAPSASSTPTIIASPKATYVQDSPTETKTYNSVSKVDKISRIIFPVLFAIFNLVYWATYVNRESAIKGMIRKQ
Description: (§1) The affinity of all ligands at the 6 major recombinant GABAA/BzR subtypes was measured by competition for [^3H]Ro15-1788 binding to HEK-T cells expressing both human and rat GABAA/Bz receptors of composition α1β2γ2 (α1), α2β2γ2 (α2), α3β2γ2 (α3), α4β2γ2 (α4), α5β2γ2 (α5) and α6β2γ2 (α6). It is well known that the β2 and β3 subunits can be interchanged with no effect on Bz ligand affinity or efficacy. […] These studies are similar to those performed in the laboratory of Bryan Roth who has already expressed the receptors employing the work of Kucken et. al. and Gray et. al.
(§2) In brief, for membrane preparations, the cells were scraped on to the ice and diluted into 5 mL of phosphate buffered saline (pH=7.40) and cells pelleted by centrifugation for 5 min. at 4° C. The pellet was resuspended in 1 mL of 50 mM Tris-acetate buffer (pH 7.4) and centrifuged at 18,000 g for 20 min. […] Each pellet were diluted to 6 mL and then 100 μL of membranes were incubated with approximately 1 nM final concentration of [^3H]Ro 15-1788 in a total volume of 250 μL together with serial dilutions of test compound for 90 min. on ice. The membranes were harvested in polyethyleneimine-pretreated Whatman GF/C filters and after drying and addition of scintillation cocktail, counted in a scintillation counter. The cpm retained on the filters was plotted against log concentration (M) and fitted to one site competition equation to obtain the Ki using Graphpad Prizm (V4.0) using the Cheng-Prusoff approximation.

[2] = target: α4β3γ2 benzodiazepine receptor GABA(A) isoform (UniProt P18507+P48169); experiment: Radioligand competition binding, α4β3γ2 BzR/GABA(A) isoform; parameters: species or system human and rat
Description: as §1
as §2, with “The cpm retained on the filters was plotted against log concentration (M) and fitted to one site competition equation to obtain the Ki using Graphpad Prizm (V4.0) using the Cheng-Prusoff approximation.” left out

[3] = system: αxβ3γ2 (α = 1-6) BzR/GABA(A) subtypes; experiment: Binding across the BzR/GABA(A) subtypes (subtype selectivity in words); parameters: species or system human and rat
Description: The binding affinity of XLi093 (8) in vitro was determined on α1-6β3γ2 LTK cells and is illustrated in the Scheme as shown in FIG. 2
as §1
In brief, for membrane preparations, the cells were scraped on to the ice and diluted into 5 mL of phosphate buffered saline (pH=7.40) and cells pelleted by centrifugation for 5 min. at 4° C. The pellet was resuspended in 1 mL of 50 mM Tris-acetate buffer (pH 7.4) and centrifuged at 18,000 g for 20 min. […] The membranes were harvested in polyethyleneimine-pretreated Whatman GF/C filters and after drying and addition of scintillation cocktail, counted in a scintillation counter. […]

α1β3γ2 GABAA receptor = α1β3γ2 GABAA receptor (Rattus norvegicus, UniProt P18508+P62813); experiment: Two-electrode voltage clamp in Xenopus oocytes, α1β3γ2; conditions: oocytes
α2β3γ2 GABAA receptor = α2β3γ2 GABAA receptor (Rattus norvegicus, UniProt P18508+P23576); experiment: Two-electrode voltage clamp in Xenopus oocytes, α2β3γ2; conditions: oocytes
Tail flick assay = conditions: in vivo
[4] = target: T2, α1β3γ2 benzodiazepine receptor GABA(A) isoform (UniProt P14867+P18507); experiment: Radioligand competition binding, α1β3γ2 BzR/GABA(A) isoform; parameters: rows headed: Ki α1 (in words); other: text; HEK-T cells (Roth et al.); species or system human and rat; conditions: HEK-T cells (Roth et al.)
T2 sequence (P14867 1-456): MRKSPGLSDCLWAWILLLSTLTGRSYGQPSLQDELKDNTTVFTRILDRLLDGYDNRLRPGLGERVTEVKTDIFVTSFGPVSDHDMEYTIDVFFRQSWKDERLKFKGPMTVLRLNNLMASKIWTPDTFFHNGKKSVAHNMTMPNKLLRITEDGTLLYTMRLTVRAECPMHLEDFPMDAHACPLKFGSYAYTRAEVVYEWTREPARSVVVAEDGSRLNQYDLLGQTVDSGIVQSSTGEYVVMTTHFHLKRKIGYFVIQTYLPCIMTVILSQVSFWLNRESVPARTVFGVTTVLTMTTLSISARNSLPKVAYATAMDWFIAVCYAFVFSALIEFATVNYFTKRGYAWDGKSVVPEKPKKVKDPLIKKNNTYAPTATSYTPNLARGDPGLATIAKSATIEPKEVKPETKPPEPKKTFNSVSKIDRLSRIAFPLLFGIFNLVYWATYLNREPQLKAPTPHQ
T2 sequence (P18507 1-475): T1 sequence (P18507 1-475)
Description: as §1
as §2, with “The cpm retained on the filters was plotted against log concentration (M) and fitted to one site competition equation to obtain the Ki using Graphpad Prizm (V4.0) using the Cheng-Prusoff approximation.” left out

[5] = read-out: Ki α3, Table I, means of two determinations
[6] = read-out: α3, untitled table of lead compounds, unit inferred

Sequence of α1β3γ2 GABAA receptor (P62813 28-455): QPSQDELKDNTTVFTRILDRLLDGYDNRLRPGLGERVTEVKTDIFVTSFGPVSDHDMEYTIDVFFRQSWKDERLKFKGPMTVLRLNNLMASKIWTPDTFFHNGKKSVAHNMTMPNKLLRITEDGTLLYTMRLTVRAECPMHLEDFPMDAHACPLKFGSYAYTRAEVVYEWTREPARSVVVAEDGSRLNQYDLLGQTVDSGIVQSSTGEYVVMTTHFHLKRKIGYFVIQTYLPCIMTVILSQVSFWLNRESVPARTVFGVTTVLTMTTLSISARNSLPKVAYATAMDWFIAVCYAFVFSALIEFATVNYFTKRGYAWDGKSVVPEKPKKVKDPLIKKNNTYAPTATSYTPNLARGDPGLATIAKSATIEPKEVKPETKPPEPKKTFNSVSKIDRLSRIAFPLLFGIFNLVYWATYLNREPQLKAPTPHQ
Sequence of α1β3γ2 GABAA receptor (P63079 26-473 partner): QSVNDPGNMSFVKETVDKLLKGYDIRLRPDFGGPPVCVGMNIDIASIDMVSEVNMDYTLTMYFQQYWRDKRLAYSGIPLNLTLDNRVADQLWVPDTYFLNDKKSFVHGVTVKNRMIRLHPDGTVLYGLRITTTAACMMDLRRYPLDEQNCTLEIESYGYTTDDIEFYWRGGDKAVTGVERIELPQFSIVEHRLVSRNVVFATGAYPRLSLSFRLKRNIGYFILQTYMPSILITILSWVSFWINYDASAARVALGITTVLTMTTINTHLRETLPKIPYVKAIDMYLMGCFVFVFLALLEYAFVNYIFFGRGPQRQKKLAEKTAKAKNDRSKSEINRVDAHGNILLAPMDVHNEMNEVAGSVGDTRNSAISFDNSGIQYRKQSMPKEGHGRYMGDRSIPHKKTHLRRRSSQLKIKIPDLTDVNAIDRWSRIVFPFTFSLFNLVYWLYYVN
Sequence of α1β3γ2 GABAA receptor (P18508 39-466): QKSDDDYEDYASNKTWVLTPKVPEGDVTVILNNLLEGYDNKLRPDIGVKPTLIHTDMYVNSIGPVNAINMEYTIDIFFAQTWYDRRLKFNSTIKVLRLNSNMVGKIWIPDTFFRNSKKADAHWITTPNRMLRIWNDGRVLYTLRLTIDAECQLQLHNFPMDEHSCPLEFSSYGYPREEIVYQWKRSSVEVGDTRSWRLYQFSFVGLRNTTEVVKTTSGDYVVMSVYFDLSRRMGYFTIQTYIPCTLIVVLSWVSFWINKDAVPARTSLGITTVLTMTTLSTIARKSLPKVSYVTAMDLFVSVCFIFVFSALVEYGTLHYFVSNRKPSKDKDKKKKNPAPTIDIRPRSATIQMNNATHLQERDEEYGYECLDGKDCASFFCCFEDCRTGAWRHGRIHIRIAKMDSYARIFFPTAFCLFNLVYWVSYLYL
Sequence of α2β3γ2 GABAA receptor (P23576 29-451): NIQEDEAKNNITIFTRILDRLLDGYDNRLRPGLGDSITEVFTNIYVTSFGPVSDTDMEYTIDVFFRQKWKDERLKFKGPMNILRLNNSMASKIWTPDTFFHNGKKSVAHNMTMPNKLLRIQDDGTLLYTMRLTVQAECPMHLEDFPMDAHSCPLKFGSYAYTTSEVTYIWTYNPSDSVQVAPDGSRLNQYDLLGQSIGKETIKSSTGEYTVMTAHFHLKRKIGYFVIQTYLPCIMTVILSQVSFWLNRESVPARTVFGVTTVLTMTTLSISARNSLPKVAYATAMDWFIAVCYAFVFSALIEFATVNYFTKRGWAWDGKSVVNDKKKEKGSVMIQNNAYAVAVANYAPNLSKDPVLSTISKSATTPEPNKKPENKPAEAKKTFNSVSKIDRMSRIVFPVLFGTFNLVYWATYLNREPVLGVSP
Sequence of α2β3γ2 GABAA receptor (P63079 26-473 partner): as the sequence (P63079 26-473 partner) above
Sequence of α2β3γ2 GABAA receptor (P18508 39-466): as the sequence (P18508 39-466) above

SMILES	Ki [1, 5] [nM]	Ki [1, 6] [nM]	Ki ([2]; Table I, means of two determinations, read-out: Ki α4) [nM]	Ki ([2]; untitled table of lead compounds, unit inferred, read-out: α4) [nM]	affinity at other BzR/GABA(A) subtypes than α5 (in words) [3]	efficacy / modulation of GABA elicited currents at α1 (in words) (α1β3γ2 GABAA receptor)	efficacy / modulation of GABA elicited currents at α2 (in words) (α2β3γ2 GABAA receptor)	analgesic effect in tail flick assay (in words) (Tail flick assay)	Ki α1 (in words) [4]
CCOC(=O)c1ncn2c1CN=C(c1ccccc1)c1cc(-c3ccccc3)ccc1-2 [DM-I-81, Ethyl 8-phenyl-6-phenyl-4H-benzo[f]imidazo[1,5-a][1,4]diazepine-3-carboxylate]	> 2000	> 2000	> 2000	> 2000	binds only to α5β3γ2 subtypes	very poor efficacy			
COCc1ncn2c1CN(C)C(=O)c1cc(Cl)ccc1-2 [PWZ-029, methyl(8-chloro-5,6-dihydro-5-methyl-6-oxo-4H-imidazo[1,5-α][1,4]benzodiazepin-3-yl)methyl ether]	> 300	> 300					very, very weak agonist activity		
CCc1ccc2c(c1)C(=O)N(C)Cc1c(C(=O)OCCCOC(=O)c3ncn4c3CN(C)C(=O)c3cc(CC)ccc3-4)ncn1-2 [XLi356, 1,3-Bis(8-ethyl-5,6-dihydro-5-methyl-6-oxo-4H-imidazo[1,5a][1,4]benzodiazepine-3-carboxy)propyl diester]						no activity		No analgesic effect	no affinity
